Reference: patent publication US20260167659A1, “STING AGONISTS” (LIGACHEM BIOSCIENCES INC., priority 2022, published 2026)

Assays:
hSTING-WT (R232) = target: T1, hSTING-WT (R232) (Homo sapiens, UniProt Q86WV6, H232R); experiment: STING activation, THP1-Dual IRF3 reporter assay, hSTING-R232 cells; format: cell-based; conditions: IRF3 luciferase reporter, 24 hours, read-out: STING activity using hSTING-R232 cells EC50
T1 construct: host or cells: THP1-Dual cells (human monocytes) with knocked-in hSTING R232
T1 sequence (Q86WV6 whole entry H232R): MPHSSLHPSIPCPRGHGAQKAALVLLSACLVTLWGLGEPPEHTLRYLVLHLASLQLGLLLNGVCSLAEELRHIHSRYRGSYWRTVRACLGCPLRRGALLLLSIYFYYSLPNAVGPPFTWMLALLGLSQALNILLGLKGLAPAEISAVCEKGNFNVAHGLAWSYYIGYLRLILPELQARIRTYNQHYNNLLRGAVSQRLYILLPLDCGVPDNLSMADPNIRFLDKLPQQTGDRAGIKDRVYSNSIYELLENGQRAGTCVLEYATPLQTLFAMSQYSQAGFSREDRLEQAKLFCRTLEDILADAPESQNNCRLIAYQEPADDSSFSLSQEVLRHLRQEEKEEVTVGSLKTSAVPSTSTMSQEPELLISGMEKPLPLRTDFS
Protocol: (§1) To assess potency of STING agonist compounds described herein, THP1-Dual™ Cells (NF—KB-SEAP and IRF-Lucia luciferase reporter monocytes, InvivoGen) were used. The reporter cells were knocked-in either of hSTING-WT (R232, #thpd-r232), HAQ variant (#thpd-nfis), or H232 variant (#thpd-h232). All cells were cultured at 37° C. in a humidified incubator at 5% CO2 and maintained in RPMI 1640 medium (Gibco, #22400097) supplemented with 10% heat-inactivated FBS and 1×Pen-Strep (Gibco, #15140122). To measure STING agonist-mediated IRF3 activity, the cells (9.0×10^4 cells per well) were seeded in a flat-bottomed 96-well plate. The next day, the cells were treated with compounds in a serial dilution for 24 hours. Subsequently, 20 μL of the cell culture supernatant and 50 μL of the QUANTI-Luc™ reagent (InvivoGen, #rep-qlc) were mixed in a 96-well white plate and then, luciferase activity was measured using an EnVision Xcite multilabel reader. The data were analyzed using Prism8 software (4-parameter).
(§2) The potency of STING agonist compounds was evaluated by the activation of Type I Interferon pathway using THP-1 IRF3 reporter assay.

human STING = target: T2, human STING (Homo sapiens, UniProt Q86WV6, H232R); experiment: Direct STING binding, HUMAN STING WT BINDING KIT (Cisbio); conditions: direct binding to human STING WT protein in vitro; read-out: Binding potency EC50
T2 construct: purchased Cisbio 64BDSTGPEG
T2 sequence (Q86WV6 whole entry H232R): as above
Source text: Additionally, for analysis of direct binding potency of STING agonist compounds described herein to human STING, HUMAN STING WT BINDING KIT (Cisbio, #64BDSTGPEG) was used according to the manufacture's instruction.

hSTING HAQ variant = target: T3, hSTING HAQ variant (Homo sapiens, UniProt Q86WV6, G230A/H232R/R293Q/R71H); experiment: STING activation, THP1-Dual IRF3 reporter assay, hSTING-HAQ cells; format: cell-based; conditions: IRF3 luciferase reporter, 24 hours, read-out: STING activity using hSTING-HAQ cells, HAQ EC50
T3 construct: host or cells: THP1-Dual cells (human monocytes)
T3 sequence (Q86WV6 whole entry R71H/G230A/H232R/R293Q): as the sequence (Q86WV6 whole entry H232R) above, with R71H, G230A, R293Q counted along it
Protocol: as §1, §2

hSTING H232 variant = target: T4, hSTING H232 variant (Homo sapiens, UniProt Q86WV6); experiment: STING activation, THP1-Dual IRF3 reporter assay, hSTING-H232 cells; format: cell-based; conditions: IRF3 luciferase reporter, 24 hours, read-out: STING activity using hSTING-H232 cells, H232 EC50
T4 construct: host or cells: THP1-Dual cells (human monocytes) with knocked-in hSTING H232
Protocol: as §1, §2

[1] = Normal cell cytotoxicity in PBMCs, CellTiter-Glo; format: cell-based; conditions: human, read-out: In vitro cell cytotoxicity in PBMCs CC50
Protocol: PBMCs were also purchased from […]™ (#700025.2). The cells (8.0×10^4 cells per well) were seeded in a flat-bottomed 96-well plate in RPMI 1640 medium (Gibco, #22400097) with 10% heat-inactivated FBS and 1× Antibiotic-Antimycotic (Gibco, #15240062) and rested for 24 hours at 37° C. […] After 72 hours, the cell viability was measured using CellTiter-Glo Luminescent Cell Viability Assay (Promega, #G7573) according to the manufacture's instruction. The signal was detected using an EnVision Xcite multilabel reader and data were analyzed using GraphPad Prism 8 software.
To verify the effect of the STING agonist compounds in normal cell cytotoxicity, the PBMCs were treated with the STING agonist compounds for 3 days and measured the percentage of cell death.

Compound	EC50 (hSTING-WT (R232)) [nM]	EC50 (human STING) [nM]	other results
CCn1nc(C)cc1C(=O)Nc1nc2cc(C(N)=O)cc(OC)c2n1C/C=C/Cn1c(NC(=O)c2cc(C)nn2CC)nc2cc(C(N)=O)cc(OC/C=C/CN3CCCN3C(=O)OCc3ccc(O[C@@H]4O[C@H](C(=O)O)[C@@H](O)[C@H](O)[C@H]4O)c(C(=O)NCCOC)c3)c21 [Compound 419]	38.1	–	–
CCn1nc(C)cc1C(=O)Nc1nc2cc(C(N)=O)cc(OC)c2n1C/C=C/Cn1c(NC(=O)c2cc(C)nn2CC)nc2cc(C(N)=O)cc(OC/C=C/Cn3cc(NC(=O)OCc4ccc(O[C@@H]5O[C@H](C(=O)O)[C@@H](O)[C@H](O)[C@H]5O)c(C(=O)NCCC(=O)NC(CC(=O)O)CC(=O)O)c4)cn3)c21 [Compound 328]	80.7	0.04	–
CCn1nc(C)cc1C(=O)Nc1nc2cc(C(N)=O)cc(OC)c2n1C/C=C/Cn1c(NC(=O)c2cc(C)nn2CC)nc2cc(C(N)=O)cc(OC/C=C/CN(CCCNC(=O)OCc3ccc(O[C@@H]4O[C@H](C(=O)O)[C@@H](O)[C@H](O)[C@H]4O)c(C(=O)NCCOCCOCCN4CCOCC4)c3)C(=N)N)c21 [Compound 332]	574	–	–
CCn1nc(C)cc1C(=O)Nc1nc2cc(C(N)=O)cc(OC)c2n1C/C=C/Cn1c(NC(=O)c2cc(C)nn2CC)nc2cc(C(N)=O)cc(OC/C=C/Cn3cc(NC(=O)OCc4ccc(O[C@@H]5O[C@H](C(=O)O)[C@@H](O)[C@H](O)[C@H]5O)c(C(=O)NCCCn5cc(CCOP(=O)(O)O)nn5)c4)cn3)c21 [Compound 357]	50.4	0.14	–
CCn1nc(C)cc1C(=O)Nc1nc2cc(C(N)=O)cc(OC)c2n1C/C=C/Cn1c(NC(=O)c2cc(C)nn2CC)nc2cc(C(N)=O)cc(OC/C=C/CN3CCN(C(=O)OCc4ccc(O[C@@H]5O[C@H](C(=O)O)[C@@H](O)[C@H](O)[C@H]5O)c(C(=O)NCCOC)c4)CC3=O)c21 [Compound 417]	24.6	–	–
CCn1nc(C)cc1C(=O)Nc1nc2cc(C(N)=O)cc(OC)c2n1C/C=C/Cn1c(NC(=O)c2cc(C)nn2CC)nc2cc(C(N)=O)cc(OC/C=C/Cn3cc(NCCC(=O)OC)cn3)c21 [Compound 174]	44.4	–	–
CCn1nc(C)cc1C(=O)Nc1nc2cc(C(N)=O)cc(OC/C=C/Cn3cc(NC(=O)OCc4ccc(O[C@@H]5O[C@H](C(=O)O)[C@@H](O)[C@H](O)[C@H]5O)c(C(=O)NCCOCCOCCN(C)C)c4)cn3)c2n1C/C=C/Cn1c(NC(=O)c2cc(C)nn2CC)nc2cc(C(N)=O)cc(OC/C=C/Cn3cc(NC(=O)OCc4ccc(O[C@@H]5O[C@H](C(=O)O)[C@@H](O)[C@H](O)[C@H]5O)c(C(=O)NCCOCCOCCN(C)C)c4)cn3)c21 [Compound 359]	463	0.17	–
CCn1nc(C)cc1C(=O)Nc1nc2cc(C(N)=O)cc(OC/C=C/Cn3cc(NC(=O)OCc4ccc(O[C@@H]5O[C@H](C(=O)O)[C@@H](O)[C@H](O)[C@H]5O)c(C(=O)NCCOCCOCCO)c4)cn3)c2n1C/C=C/Cn1c(NC(=O)c2cc(C)nn2CC)nc2cc(C(N)=O)cc(OCCCC(=O)O)c21 [Compound 316]	88.2	–	EC50 (hSTING HAQ variant): 400 nM; EC50 (hSTING H232 variant): 251 nM; CC50 at 72 h [1]: 207 nM
CCn1nc(C)cc1C(=O)Nc1nc2cc(C(N)=O)cc(OC)c2n1C/C=C/Cn1c(NC(=O)c2cc(C)nn2CC)nc2cc(C(N)=O)cc(OC/C=C/Cn3cc(NC(=O)OCc4ccc(O[C@@H]5O[C@H](C(=O)O)[C@@H](O)[C@H](O)[C@H]5O)c(C(=O)NCCOCCOCCN)c4)cn3)c21 [Compound 372]	54.6	–	–
CCn1nc(C)cc1C(=O)Nc1nc2cc(C(N)=O)cc(OC)c2n1C/C=C/Cn1c(NC(=O)c2cc(C)nn2CC)nc2cc(C(N)=O)cc(OC/C=C/Cn3cc(NC(=O)OCc4ccc(O[C@@H]5O[C@H](C(=O)O)[C@@H](O)[C@H](O)[C@H]5O)c(C(=O)NCCOCCOCCOCCOCCOCC(=O)O)c4)cn3)c21 [Compound 285]	33.5	0.3	–
CCn1nc(C)cc1C(=O)Nc1nc2cc(C(N)=O)cc(OC/C=C/Cn3cc(NC(=O)OCc4ccc(OC5O[C@H](C(=O)O)[C@@H](O)[C@H](O)[C@H]5O)c(C(=O)NCCOCCOCCN(C)C)c4)cn3)c2n1C/C=C/Cn1c(NC(=O)c2cc(C)nn2CC)nc2cc(C(N)=O)cc(OCCCS(C)(=O)=NC(=O)OCc3ccc(O[C@@H]4O[C@H](C(=O)O)[C@@H](O)[C@H](O)[C@H]4O)c(C(=O)NCCOCCOCCN(C)C)c3)c21 (stereo partly drawn) [Compound 376]	287	–	–

The next compounds have a lower EC50 (hSTING-WT (R232)) than those just listed; values first:

EC50 (hSTING-WT (R232)) [nM]	EC50 (human STING) [nM]	Compound	other results
16.2	0.19	CCn1nc(C)cc1C(=O)Nc1nc2cc(C(N)=O)cc(OC)c2n1C/C=C/Cn1c(NC(=O)c2cc(C)nn2CC)nc2cc(C(N)=O)cc(OC/C=C/Cn3cc(NC(=O)OCc4ccc(O[C@@H]5O[C@H](CO)[C@H](O)[C@H](O)[C@H]5O)c(C(=O)NCCOCCOCCN(C)C)c4)cn3)c21 [Compound 337]	–
8.86	0.26	CCn1nc(C)cc1C(=O)Nc1nc2cc(C(N)=O)cc(OC)c2n1C/C=C/Cn1c(NC(=O)c2cc(C)nn2CC)nc2cc(C(N)=O)cc(OC/C=C/Cn3cc(NC(=O)OCc4ccc(O[C@@H]5O[C@H](C(=O)O)[C@@H](O)[C@H](O)[C@H]5O)c(C(=O)NCCOCCOCCN5CCOCC5)c4)cn3)c21 [Compound 291]	–
7.2	0.27	CCn1nc(C)cc1C(=O)Nc1nc2cc(C(N)=O)cc(OC)c2n1C/C=C/Cn1c(NC(=O)c2cc(C)nn2CC)nc2cc(C(N)=O)cc(OC/C=C/Cn3cc(NC(=O)OCc4ccc(O[C@@H]5O[C@H](C(=O)O)[C@@H](O)[C@H](O)[C@H]5O)c(C(=O)O)c4)cn3)c21 [Compound 299]	–
7.67	–	CCn1nc(C)cc1C(=O)Nc1nc2cc(C(N)=O)cc(OC)c2n1C/C=C/Cn1c(NC(=O)c2cc(C)nn2CC)nc2cc(C(N)=O)cc(OC/C=C/Cn3cc(NC(=O)OCc4ccc(O[C@@H]5O[C@H](C(=O)O)[C@@H](O)[C@H](O)[C@H]5O)c(C(=O)NCCOCCOCCN=[N+]=[N-])c4)cn3)c21 [Compound 367]	–
6.78	–	CCn1nc(C)cc1C(=O)Nc1nc2cc(C(N)=O)cc(OC)c2n1C/C=C/Cn1c(NC(=O)c2cc(C)nn2CC)nc2cc(C(N)=O)cc(OCCc3ccc(NC(=O)OCc4ccc(O[C@@H]5O[C@H](C(=O)O)[C@@H](O)[C@H](O)[C@H]5O)c(C(=O)NCCOCCOCCN(C)C)c4)cc3)c21 [Compound 262]	–
5.36	0.18	CCn1nc(C)cc1C(=O)Nc1nc2cc(C(N)=O)cc(OC)c2n1C/C=C/Cn1c(NC(=O)c2cc(C)nn2CC)nc2cc(C(N)=O)cc(OC/C=C/Cn3cc(NC(=O)OCc4ccc(O[C@@H]5O[C@H](CO)[C@H](O)[C@H](O)[C@H]5O)c(C(=O)NCCOCCOCCO)c4)cn3)c21 [Compound 307]	–
4.46	–	CCn1nc(C)cc1C(=O)Nc1nc2cc(C(N)=O)cc(OC)c2n1C/C=C/Cn1c(NC(=O)c2cc(C)nn2CC)nc2cc(C(N)=O)cc(OCCc3ccc(NC(=O)OCc4ccc(O[C@@H]5O[C@H](C(=O)O)[C@@H](O)[C@H](O)[C@H]5O)c(C(=O)NCCOC)c4)cc3)c21 [Compound 239]	–
10.5	–	C#CCNC(=O)c1cc(COC(=O)Nc2cnn(C/C=C/COc3cc(C(N)=O)cc4nc(NC(=O)c5cc(C)nn5CC)n(C/C=C/Cn5c(NC(=O)c6cc(C)nn6CC)nc6cc(C(N)=O)cc(OC)c65)c34)c2)ccc1O[C@@H]1O[C@H](C(=O)OC)[C@@H](OC(C)=O)[C@H](OC(C)=O)[C@H]1OC(C)=O [Compound 347]	–
3.65	0.04	CCn1nc(C)cc1C(=O)Nc1nc2cc(C(N)=O)cc(OC)c2n1C/C=C/Cn1c(NC(=O)c2cc(C)nn2CC)nc2cc(C(N)=O)cc(OC/C=C/Cn3cc(NC(=O)OCc4ccc(O[C@@H]5O[C@H](CO)[C@H](O)[C@H](O)[C@H]5O)c(C(=O)NCCOC)c4)cn3)c21 [Compound 320]	–
18.8	–	CCn1nc(C)cc1C(=O)Nc1nc2cc(C(N)=O)cc(OC)c2n1C/C=C/Cn1c(NC(=O)c2cc(C)nn2CC)nc2cc(C(N)=O)cc(OC/C=C/Cn3cc(NC(=O)OCc4ccc(O[C@@H]5O[C@H](C(=O)O)[C@@H](O)[C@H](O)[C@H]5O)c(C(=O)NCCOC)c4)cn3)c21 [Compound 272]	–
